biological target: T1, P2X7 receptor (Homo sapiens, UniProt Q99572); assay: P2X7 calcium mobilization assay, high throughput, antagonist activity (Example 4A); assay type: cell-based; conditions: fluorescence response of cells exposed to 80 μM 2′(3′)-O-(4-benzoyl-benzoyl)adenosine 5′-triphosphate; Example 4A; read-out: IC50
T1 construct: host or cells: SH-SY5Y
T1 sequence (Q99572 1-595): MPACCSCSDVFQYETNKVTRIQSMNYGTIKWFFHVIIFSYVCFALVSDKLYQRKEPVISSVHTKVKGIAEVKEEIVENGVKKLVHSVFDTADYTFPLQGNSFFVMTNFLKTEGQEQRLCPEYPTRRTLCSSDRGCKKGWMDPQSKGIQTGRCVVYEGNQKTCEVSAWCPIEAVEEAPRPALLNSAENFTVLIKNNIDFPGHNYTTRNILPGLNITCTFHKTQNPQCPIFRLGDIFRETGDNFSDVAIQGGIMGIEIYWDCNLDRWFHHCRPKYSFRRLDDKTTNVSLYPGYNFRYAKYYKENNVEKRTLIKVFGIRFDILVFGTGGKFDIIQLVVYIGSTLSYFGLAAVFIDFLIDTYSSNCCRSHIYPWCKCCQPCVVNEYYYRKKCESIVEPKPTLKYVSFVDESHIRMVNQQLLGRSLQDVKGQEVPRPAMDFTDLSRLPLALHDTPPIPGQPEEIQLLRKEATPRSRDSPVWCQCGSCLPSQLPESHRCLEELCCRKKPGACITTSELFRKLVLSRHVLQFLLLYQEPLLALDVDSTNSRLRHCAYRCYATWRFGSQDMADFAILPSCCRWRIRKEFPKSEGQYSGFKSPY
Outline: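 Antagonism was measured as calcium mobilization on FLIPR^TETRA after a 1 h room-temperature compound preincubation of dye-loaded cells. Baseline from no-agonist wells was subtracted from each well's maximum RFU.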

IC50, < 2 µM:
CC1(C)[C@H]2CC[C@@H](CNC(=O)c3cccc4nc(C(=O)N5CCCC5CN)cn34)[C@@H]1C2 (stereo partly drawn) [Compound 324, 2-{[2-(aminomethyl)pyrrolidin-1-yl]carbonyl}-N-{[(1S,2R,5S)-6,6-dimethylbicyclo[3.1.1]hept-2-yl]methyl}imidazo[1,2-a]pyridine-5-carboxamide]
CC1(C)[C@H]2CC[C@@H](CNC(=O)c3cccc4nc(C(=O)N5CCCC(N)C5)cn34)[C@@H]1C2 (stereo partly drawn) [Compound 325, 2-[(3-aminopiperidin-1-yl)carbonyl]-N-{[(1S,2R,5S)-6,6-dimethylbicyclo[3.1.1]hept-2-yl]methyl}imidazo[1,2-a]pyridine-5-carboxamide]
CC1(C)[C@H]2CC[C@@H](CNC(=O)c3cccc4nc(C(=O)N5CCC(N)CC5)cn34)[C@@H]1C2 [Compound 326, 2-[(4-aminopiperidin-1-yl)carbonyl]-N-{[(1S,2R,5S)-6.6-dimethylbicyclo[3.1.1]hept-2-yl]methyl}imidazo[1,2-a]pyridine-5-carboxamide]
CC1(C)[C@H]2CC[C@@H](CNC(=O)c3cccc4nc(C(=O)N5CC[C@H](N)C5)cn34)[C@@H]1C2 [Compound 330, 2-{[(3S)-3-aminopyrrolidin-1-yl]carbonyl}-N-{[(1S,2R,5S)-6.6-dimethylbicyclo{3.1.1]hept-2-yl]methyl}imidazo[1,2-a]pyridine-5-carboxamide]
CC1(C)[C@H]2CC[C@@H](CNC(=O)c3cccc4nc(C(=O)NC5CCNC5)cn34)[C@@H]1C2 (stereo partly drawn) [Compound 333, 5-N-{[(1S,2R,5S)-6,6-dimethylbicyclo[3.1.1]hept-2-yl]methyl}-2-N-pyrrolidin-3-ylimidazo[1,2-a]pyridine-2,5-dicarboxamide]
CC1(C)[C@H]2CC[C@@H](CNC(=O)c3cccc4nc(C(=O)N5C6CCC5CC(N)C6)cn34)[C@@H]1C2 (stereo partly drawn) [Compound 335, 2-[(3-amino-8-azabicyclo[3.2.1]oct-8-yl)carbonyl]-N-{[(1S,2R,5S)-6,6-dimethylbicyclo[3.1.1]hept-2-yl]methyl}imidazo[1,2-a]pyridine-5-carboxamide]
CC1(C)[C@H]2CC[C@@H](CNC(=O)c3cccc4nc(C(=O)N5CCOC(CN)C5)cn34)[C@@H]1C2 (stereo partly drawn) [Compound 336, 2-{[2-(aminomethyl)morpholin-4-yl]carbonyl}-N-{[(1S,2R,5S)-6,6-dimethylbicyclo[3.1.1]hept-2-yl]methyl}imidazo[1,2-a]pyridine-5-carboxamide]
CCOC(=O)C(C)c1cn2c(C(=O)NCC34CC5CC(CC(C5)C3)C4)cccc2n1 (stereo not shown) [Compound 338, ethyl 2-{5-[(adamantan-1-ylmethyl)carbamoyl]imidazo[1,2-a]pyridin-2-yl}propanoate]
Cc1cc(-c2cn3c(C(=O)NCC45CC6CC(CC(C6)C4)C5)cccc3n2)n(CCO)n1 [Compound 339, N-(adamantan-1-ylmethyl)-2-[1-(2-hydroxyethyl)-3-methyl-1H-pyrazol-5-yl]imidazo[1,2-a]pyridine-5-carboxamide]
Cc1cc(-c2cn3c(C(=O)NCC45CC6CC(CC(C6)C4)C5)cccc3n2)nn1CCO [Compound 340, N-(adamantan-1-ylmethyl)-2-[1-(2-hydroxyethyl)-5-methyl-1H-pyrazol-3-yl]imidazo[1,2-a]pyridine-5-carboxamide]
CCOC(=O)CN(C)Cc1cn2c(C(=O)NCC34CC5CC(CC(C5)C3)C4)cccc2n1 [Compound 341, ethyl N-({5-[(adamantan-1-ylmethyl)carbamoyl]imidazo[1,2-a]pyridin-2-yl}methyl)-N-methylglycinate]
O=C(O)CCSCc1cn2c(C(=O)NCC34CC5CC(CC(C5)C3)C4)cccc2n1 [Compound 342, 3-[({5-[(adamantan-1-ylmethyl)carbamoyl]imidazo[1,2-a]pyridin-2-yl}methyl)thio] propanoic acid]
O=C(NCCC1CC2CCC1C2)c1cccc2nc(CN3CCOCC3)cn12 (stereo not shown) [Compound 344, N-(2-bicyclo[2.2.1]hept-2-ylethyl)-2-(morpholin-4-ylmethyl)imidazo[1,2-a]pyridine-5-carboxamide]
O=C(O)c1cccc(-c2cn3c(C(=O)NCC45CC6CC(CC(C6)C4)C5)cccc3n2)c1 [Compound 345, 3-{5-[(adamantan-1-ylmethyl)carbamoyl]imidazo[1,2-a]pyridin-2-yl} benzoic acid]
O=C(O)CCS(=O)(=O)Cc1cn2c(C(=O)NCC34CC5CC(CC(C5)C3)C4)cccc2n1 [Compound 346, 3-[({5-[(adamantan-1-ylmethyl)carbamoyl]imidazo[1,2-a]pyridin-2-yl}methyl)sulfonyl] propanoic acid]
Cc1cc(-c2cn3c(C(=O)NCC45CC6CC(CC(C6)C4)C5)cccc3n2)n(CC(=O)O)n1 [Compound 347, (5-{5-[(adamantan-1-ylmethyl)carbamoyl]imidazo[1,2-a]pyridin-2-yl}-3-methyl-1H-pyrazol-1-yl)acetic acid]
CN(CC(=O)O)Cc1cn2c(C(=O)NCC34CC5CC(CC(C5)C3)C4)cccc2n1 [Compound 348, N-({5-[(adamantan-1-ylmethyl)carbamoyl]imidazo[1,2-a]pyridin-2-yl}methyl)-N-methylglycine]
O=C(O)c1ccc(=O)n(Cc2cn3c(C(=O)NCC45CC6CC(CC(C6)C4)C5)cccc3n2)c1 [Compound 350, 1-({5-[(adamantan-1-ylmethyl)carbamoyl]imidazo[1,2-a]pyridin-2-yl}methyl)-6-oxo-1,6-dihydropyridine-3-carboxylic acid]
O=C(O)c1cccn(Cc2cn3c(C(=O)NCC45CC6CC(CC(C6)C4)C5)cccc3n2)c1=O [Compound 351, 1-({5-[(adamantan-1-ylmethyl)carbamoyl]imidazo[1,2-a]pyridin-2-yl}methyl)-2-oxo-1,2-dihydropyridine-3-carboxylic acid]
O=C(NCC12CC3CC(CC(C3)C1)C2)c1cccc2nc(CN3CCSCC3)cn12 [Compound 352, N-(adamantan-1-ylmethyl)-2-(thiomorpholin-4-ylmethyl)imidazo[1,2-a]pyridine-5-carboxamide]
CC(=O)CCc1cn2c(C(=O)NCC34CC5CC(CC(C5)C3)C4)cccc2n1 [Compound 353, N-(adamantan-1-ylmethyl)-2-(3-oxobutyl)imidazo[l ,2-a]pyridine-5-carboxamide]
C/C(CCc1cn2c(C(=O)NCC34CC5CC(CC(C5)C3)C4)cccc2n1)=N\O [Compound 354, N-(adamantan-1-ylmethyl)-2-[(3E)-3-(hydroxyimino)butyl] imidazo[1,2-a]pyridine-5-carboxamide]
O=C(O)c1ccn(Cc2cn3c(C(=O)NCC45CC6CC(CC(C6)C4)C5)cccc3n2)c(=O)c1 [Compound 355, 1-({5-[(adamantan-1-ylmethyl)carbamoyl]imidazo[1,2-a]pyridin-2-yl}methyl)-2-oxo-1,2-dihydropyridine-4-carboxylic acid]
CCOC(=O)N1CCN(C(=O)c2cn3c(NC(=O)CC45CC6CC(CC(C6)C4)C5)cccc3n2)CC1 [Compound 356, ethyl 4-({5-[(adamantan-1-ylacetyl)amino]imidazo [1,2-a]pyridin-2-yl}carbonyl) piperazine-1-carboxylate]
O=C(CC12CC3CC(CC(C3)C1)C2)Nc1cccc2nc(C(=O)N3CCCCC3)cn12 [Compound 357, 2-adamantan-1-yl-N-[2-(piperidin-1-ylcarbonyl)imidazo [1,2-a]pyridin-5-yl]acetamide]
O=C(CC12CC3CC(CC(C3)C1)C2)Nc1cccc2nc(C(=O)N3CCCC3)cn12 [Compound 358, 2-adamantan-1-yl-N-[2-(pyrrolidin-1-ylcarbonyl)imidazo [1,2-a]pyridin-5-yl]acetamide]
CCCCN(C)C(=O)c1cn2c(NC(=O)CC34CC5CC(CC(C5)C3)C4)cccc2n1 [Compound 360, 5-[(adamantan-1-ylacetyl)amino]-N-butyl-N-methylimidazo[1,2-a]pyridine-2-carboxamide]
CCCN(C)C(=O)c1cn2c(NC(=O)CC34CC5CC(CC(C5)C3)C4)cccc2n1 [Compound 361, 5-[(adamantan-1-ylacetyl)amino]-N-methyl-N-propylimidazo[1,2-a]pyridine-2-carboxamide]
O=C(CC12CC3CC(CC(C3)C1)C2)Nc1cccc2nc(C(=O)N3CCSCC3)cn12 [Compound 362, 2-adamantan-1-yl-N-[2-(thiomorpholin-4-ylcarbonyl)imidazo[1,2-a]pyridin-5-yl]acetamide]
CC1CCN(C(=O)c2cn3c(NC(=O)CC45CC6CC(CC(C6)C4)C5)cccc3n2)CC1 [Compound 363, 2-adamantan-1-yl-N-{2-[(4-methylpiperidin-1-yl)carbonyl]imidazo[1,2-a]pyridin-5-yl}acetamide]
O=C(CC12CC3CC(CC(C3)C1)C2)Nc1cccc2nc(C(=O)N3CCOCC3)cn12 [Compound 364, 2-adamantan-1-yl-N-[2-(morpholin-4-ylcarbonyl)imidazo[1,2-a]pyridin-5-yl]acetamide]
